# “And” between values parts separate entries of the source, which are not always exact repeats. Identical values can stand only once.
# How the values were obtained:
# human TRPA1 = human TRPA1 (Homo sapiens, UniProt O75762); assay: FLIPR intracellular Ca2+ assay, direct (agonist) effect on TRPA1; type: cell-based; design: expressed in transfected cells
# Description: After centrifugation, a pellet of cells was formed in the bottom of the tube separating them from the supernatant solution.
# The pelleted cells were re-suspended in 10 ml assay buffer and 90 μl aliquots (˜50,000 cells) per well delivered to a 96-well assay plate containing 10 μl of test compounds (1 mM in assay buffer, final concentration 100 μM) or buffer control and incubated at room temperature for 30 minutes.
# [1] = Headspace GC reduction of 1-propanethiol by protectant (Michael Acceptor) compounds; conditions: for % Thiol Reduction: 0.1% sodium lauryl sulfate, 1% test compound, headspace; for Percent Thiol Reduction vs. Control: 0.1% SLS
# Description: For EXAMPLES 11 and 12 a 0.1% sodium lauryl sulfate (SLS) aqueous solution was prepared to contain either 1 ppm or 10 ppm of 1-propanethiol. SLS solution was added to the sample and control solutions to assist in solubilization of the more hydrophobic compounds. Control solutions contained surfactant and 1-propanethiol, while sample solutions contained these components plus a protectant compound added at either 0.01% or 0.05%. 100 μL aliquots of control or test solutions were aliquotted into a 22 mL headspace vial, vortexed for 30 seconds, and incubated for 30 minutes at 60 C in an oven. After that period, 1 mL of head space was sampled and injected into an Agilent 7890 gas chromatograph equipped with a sulfur chemiluminescence detector (GC-SCD). Peak areas of the 1-propanethiol control sample (no protectant compound added) were established by triplicate injection of the control sample. The area of the propanethiol peak produced from samples containing selected protectant molecules were then determined and ratioed to the 1-propanethiol control peak area, subtracted from 1, and multiplied by 100 to calculate percent reduction of the thiol peak, thus indicating the effectiveness of each protectant at reducing the level of thiol.
# The samples in TABLE 17 were prepared by combining 1 ppm 1-propanethiol with 0.1% sodium lauryl sulfate with 1% of the test compounds. The volatile sulfurs were measured with headspace GC/MS using a SPEME column to capture the volatile sulfur.
# The samples in TABLE 18 were prepared by combining either 1 or 10 ppm 1-propanethiol with 0.1% sodium lauryl sulfate with either 0.01% or 0.05% of the test compounds.
# [2] = Trained sensory panel, burn sensation after brushing with menthol dentifrice; type: in vivo, human; design: key: 0 = no burning to 60 = highest intensity; 7.5 difference = significant; conditions: scale 0-60
# Description: (§1) For EXAMPLES 6 and 7 sensory evaluation studies of menthol and hydrogen peroxide activity were conducted using a methodology patterned after the techniques described in M. C. Meilgaard, et al., Sensory Evaluation Techniques, 4th Ed. (2007). In one study, a panel of 8-15 trained sensory experts evaluated the menthol or peroxide sensations experienced after brushing with a dentifrice containing the menthol or hydrogen peroxide and the respective TRPA1 or TRPV1 antagonists. Panelists brushed teeth with 1.5 grams of a dentifrice (containing coolant) or control (no coolant) and then expectorated. After brush expectoration, panelists evaluated the burn intensity, assigning a number between 0 (no burning) to 60 ([…]). After rinse expectoration, panelists evaluated burning intensity according to the same 0 to 60 scale. Evaluations were conducted at 5, 15, 30, 45, 60 minute, etc. time points. At each evaluation, panelists were instructed to breathe in through pursed lips and evaluate overall burning sensation. In this test, a numerical score difference from the control of 7.5 indicates user significant differences or definite reduction in burning at the specified time point. Measures between 4.0 to 7.5 indicate a noticeable trend in the specified parameter, which is not statistically significant, but noticeable.
# For EXAMPLE 6 (TABLES 8 and 9), a panel of 14 trained sensory experts evaluated the sensory profile experienced after brushing with the dentifrice sample formulations shown in TABLES 6 and 7 containing high levels of menthol followed by rinsing with water. Panelists brushed teeth with 1.5 grams of a test dentifrice (containing high menthol levels) or control (no menthol) for 36 seconds and then expectorated. The dentifrice sample formulations (control and high L-Menthol) are shown below in TABLE 6 (with peppermint flavor) and TABLE 7 (with spearmint flavor). The dentifrices were made using conventional methods and are shown below with component amounts in weight % of total composition. […]
# For TABLE 10 all the Samples had the same formulation as Sample E from TABLE 6, except for the Control which lacked menthol. After brushing or mouthwash expectoration, panelists evaluated the burning sensation, assigning a number between 0 (no sensation) to 60 (highest intensity sensation). Evaluations were conducted at 5, 10, 20 and 30 minute time points, following expectoration. At each evaluation, panelists were instructed to breathe in through pursed lips and evaluate overall sensation. In this test, a numerical score of 7.5 indicates a significant user noticeable sensation. Differences less than 7.5, but greater than 5.0 indicate the trending of the data on a specific attribute.
# [3] = Trained sensory panel, burning and numbing sensation after hydrogen peroxide mouthwash; type: in vivo, human; design: key to Burning Sensation: 0 = no sensation, 60 = highest intensity sensation; conditions: scale 0-60
# Description: as §1
# For EXAMPLE 7, a panel of 10 trained sensory experts evaluated the sensory profile experienced after rinsing with 30 grams of a test mouthwash (containing hydrogen peroxide and TRPA1 or TRPV1 antagonist) or control (containing hydrogen peroxide and no TRPA1 or TRPV1 antagonist) for 30 seconds and then expectorated. After expectoration, panelists evaluated the sensorial profile (cooling, warming, burning, numbing, and astringency), assigning a number between 0 (no sensation) to 60 (highest intensity sensation). Evaluations were conducted at 2.5, 5, 10, 20, and 30 minute time points, following expectoration at each evaluation, panelists were instructed to breathe in through pursed lips and evaluate overall burning or numbing sensation. The hydrogen peroxide containing mouthwash formulations are shown below in TABLE 11. The mouthwash samples tested comprised a control having the components listed in TABLE 11 by weight % of the composition or the control formulation plus TRPA1 or TRPV1 antagonist, as shown in TABLE 12. The mouthwashes were made using conventional methods and are shown below with amounts in weight % of total composition.
# human TRPV1 [4] = target: T1, human TRPV1 (Homo sapiens, UniProt Q8NER1); assay: FLIPR Ca2+ assay, reduction of hydrogen peroxide activation of TRPV1; type: cell-based; design: expressed in transfected cells; conditions: for Ca++ counts: with compound
# Description: (§2) Cells were detached with addition of 10 ml of PBS (phosphate buffered saline) by hand shaking gently. Cells were transferred to a 50 ml tube and centrifuged at 850 rpm for 3 minutes to remove PBS.
# The pelleted cells were re-suspended in 10 ml assay buffer and 90 μl aliquots (˜50,000 cells) per well delivered to a 96-well assay plate containing 10 μl of test compounds (1 mM in assay buffer, […]) or buffer control and incubated at room temperature for 30 minutes.
# human TRPV1 [5] = target: T1, human TRPV1; assay: FLIPR Ca2+ assay, reduction of capsaicin activation of TRPV1; type: cell-based; design: expressed in transfected cells; conditions: for Ca++ counts: with compound
# Description: as §2
# The pelleted cells were re-suspended in 10 ml assay buffer and 90 μl aliquots (˜50,000 cells) per well delivered to a 96-well assay plate containing 10 μl of test compounds ([…]) or buffer control and incubated at room temperature for 30 minutes.
# [6] = 5 Min After Rinse, dentifrice Sample E (1% menthol) with antagonist levels as E42
# [7] = 10 Min After Rinse, dentifrice Sample E (1% menthol) with antagonist levels as E42
# [8] = 20 Min After Rinse, dentifrice Sample E (1% menthol) with antagonist levels as E42
# [9] = 30 Min After Rinse, dentifrice Sample E (1% menthol) with antagonist levels as E42
# [10] = After Expectoration, dentifrice Sample E (1% added menthol) with Apritone 200 ppm, Dihydrojasmone 6 ppm, Isobornyl Isobutyrate 100 ppm, α-heptyl-γ-valerolactone 100 ppm as named
# [11] = After Rinse, dentifrice Sample E (1% menthol) with antagonist levels as E42
# [12] = 2 Min 30 SEC After Expectoration, H2O2 mouthwash, antagonist levels as E48
# [13] = 5 Min After Expectoration, H2O2 mouthwash, antagonist levels as E48
# [14] = 10 Min After Expectoration, H2O2 mouthwash, antagonist levels as E48
# [15] = 20 Min After Expectoration, H2O2 mouthwash, antagonist levels as E48
# [16] = 30 Min After Expectoration, H2O2 mouthwash, antagonist levels as E48
# [17] = After Expectoration, H2O2 mouthwash, antagonist levels as E48
# [18] = Initial in Mouth, hydrogen peroxide mouthwash (TABLE 11) with Apritone 200 ppm, Isobornyl Isobutyrate 100 ppm, Dihydrojasmone 6 ppm as named, 10 panelists
# [19] = 1 ppm 1-propanethiol, 0.01% test compound
# [20] = 1 ppm 1-propanethiol, 0.05% test compound
# [21] = 10 ppm 1-propanethiol, 0.01% test compound
# [22] = 10 ppm 1-propanethiol, 0.05% test compound
# T1 sequence (Q8NER1 whole entry): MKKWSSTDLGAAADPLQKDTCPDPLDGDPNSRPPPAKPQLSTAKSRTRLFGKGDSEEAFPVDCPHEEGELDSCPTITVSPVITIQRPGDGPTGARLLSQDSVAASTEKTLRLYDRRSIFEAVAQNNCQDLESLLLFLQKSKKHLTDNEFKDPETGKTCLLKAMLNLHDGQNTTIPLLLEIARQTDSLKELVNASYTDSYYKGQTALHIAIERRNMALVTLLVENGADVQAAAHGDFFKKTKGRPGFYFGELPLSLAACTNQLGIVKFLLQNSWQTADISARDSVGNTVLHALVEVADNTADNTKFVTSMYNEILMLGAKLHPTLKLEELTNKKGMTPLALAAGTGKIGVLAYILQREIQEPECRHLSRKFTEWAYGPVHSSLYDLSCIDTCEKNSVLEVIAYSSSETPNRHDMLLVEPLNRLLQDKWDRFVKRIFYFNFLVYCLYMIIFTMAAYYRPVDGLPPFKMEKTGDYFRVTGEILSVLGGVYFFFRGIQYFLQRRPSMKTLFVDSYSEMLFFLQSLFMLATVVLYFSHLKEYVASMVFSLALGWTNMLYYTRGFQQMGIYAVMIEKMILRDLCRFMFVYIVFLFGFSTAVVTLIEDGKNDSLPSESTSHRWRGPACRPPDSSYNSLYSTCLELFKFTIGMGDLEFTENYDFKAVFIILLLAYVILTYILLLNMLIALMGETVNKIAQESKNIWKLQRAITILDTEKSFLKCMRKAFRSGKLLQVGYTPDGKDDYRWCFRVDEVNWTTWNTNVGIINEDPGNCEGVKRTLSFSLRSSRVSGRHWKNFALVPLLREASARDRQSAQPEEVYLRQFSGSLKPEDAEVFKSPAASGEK
# human TRPA1, sequence (O75762 whole entry): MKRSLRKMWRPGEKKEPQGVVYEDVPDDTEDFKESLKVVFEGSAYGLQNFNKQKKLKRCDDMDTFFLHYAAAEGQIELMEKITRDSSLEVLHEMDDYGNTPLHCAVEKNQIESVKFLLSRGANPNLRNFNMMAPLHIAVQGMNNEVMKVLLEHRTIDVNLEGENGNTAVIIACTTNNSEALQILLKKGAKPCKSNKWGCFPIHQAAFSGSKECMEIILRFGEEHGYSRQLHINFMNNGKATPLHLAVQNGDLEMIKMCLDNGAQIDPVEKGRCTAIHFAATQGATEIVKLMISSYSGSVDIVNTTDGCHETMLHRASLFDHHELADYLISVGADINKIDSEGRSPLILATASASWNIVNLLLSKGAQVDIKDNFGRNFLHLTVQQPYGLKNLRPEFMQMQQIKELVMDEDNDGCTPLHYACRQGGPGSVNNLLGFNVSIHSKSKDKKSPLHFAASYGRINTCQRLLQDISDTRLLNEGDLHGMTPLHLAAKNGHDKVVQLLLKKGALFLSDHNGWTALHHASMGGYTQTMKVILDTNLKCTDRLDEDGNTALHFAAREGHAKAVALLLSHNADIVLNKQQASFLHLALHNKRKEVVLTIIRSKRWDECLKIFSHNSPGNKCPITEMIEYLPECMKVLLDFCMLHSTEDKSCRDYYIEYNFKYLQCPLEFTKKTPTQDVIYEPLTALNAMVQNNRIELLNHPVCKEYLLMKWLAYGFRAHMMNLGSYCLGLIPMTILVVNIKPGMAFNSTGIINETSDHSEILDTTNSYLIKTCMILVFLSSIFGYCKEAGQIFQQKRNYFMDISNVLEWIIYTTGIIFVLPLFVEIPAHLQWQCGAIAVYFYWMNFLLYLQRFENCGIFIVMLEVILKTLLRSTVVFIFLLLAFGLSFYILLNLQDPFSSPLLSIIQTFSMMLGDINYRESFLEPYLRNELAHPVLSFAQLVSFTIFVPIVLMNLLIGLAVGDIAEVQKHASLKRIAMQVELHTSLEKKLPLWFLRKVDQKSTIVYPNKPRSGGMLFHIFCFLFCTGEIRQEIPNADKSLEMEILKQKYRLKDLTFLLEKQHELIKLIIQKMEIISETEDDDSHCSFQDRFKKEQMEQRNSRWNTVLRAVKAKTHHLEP
SMILES,% Thiol Reduction ([1]; 1 ppm 1-propanethiol),"Burning Sensation Rating [2, 6]","Burning Sensation Rating [2, 7]","Burning Sensation Rating [2, 8]","Burning Sensation Rating [2, 9]","Burning Sensation Rating [2, 10]","Burning Sensation Rating [2, 11]","Burning Sensation [3, 12]","Numbing Sensation [3, 12]","Burning Sensation [3, 13]","Numbing Sensation [3, 13]","Burning Sensation [3, 14]","Numbing Sensation [3, 14]","Burning Sensation [3, 15]","Numbing Sensation [3, 15]","Burning Sensation [3, 16]","Numbing Sensation [3, 16]","Burning Sensation [3, 17]","Numbing Sensation [3, 17]","Burning Sensation [3, 18]",other results
"C=CCN=C=S [AITC, allyl isothiocyanate]",–,–,–,–,–,–,–,–,–,–,–,–,–,–,–,–,–,–,–,–,"Average Ca++ Counts (human TRPA1; AITC 50 μM alone, each Set 1-4): 8322.5 Counts and 14138.2 Counts and 15213.0 Counts and 11209.0 Counts; Ca2+ Count, TRPA1 (human TRPA1; control agonist AITC 50 μM): 12219 Count"
CC(=O)c1ccc[nH]1 [Acetylpyrrole],37.3%,–,–,–,–,–,–,–,–,–,–,–,–,–,–,–,–,–,–,–,–
CC(C)=CCC/C(C)=C/CC1CCCC1=O (stereo not drawn) [Apritone],–,13.3,5.3,0.0,0.0,27.4,24.0,20.8,12.4,16.0,10.1,8.6,6.0,3.3,4.2,1.3,0.8,21.9,11.6,12.6,"% inhibition of TRPV1 activation by 500 uM H2O2 (human TRPV1 [4]; Dose 1000): 96%; % Reduction of Hydrogen Peroxide TRPV1 Activation (human TRPV1 [4]; antagonist 100 μM against 500 μM hydrogen peroxide): 96%; Ca++ counts (human TRPV1 [4]; Dose 1000, 500 uM H2O2): 66; % inhibition of TRPV1 activation by 350 nM Capsaicin (human TRPV1 [5]; Dose 1000): 10%; Ca++ counts (human TRPV1 [5]; Dose 1000, 350 nM Capsaicin): 13526"
O=C/C=C/c1ccccc1 [Cinnamic aldehyde],–,–,–,–,–,–,–,–,–,–,–,–,–,–,–,–,–,–,–,–,"Percent Thiol Reduction vs. Control [1, 19]: 36.8%; Percent Thiol Reduction vs. Control [1, 20]: 52.4%; Percent Thiol Reduction vs. Control [1, 21]: −10.0%; Percent Thiol Reduction vs. Control [1, 22]: −5.7%"
CCCCCC1=C(C)CCC1=O [Dihydrojasmone],significantly or completely reduced sulfur production,11.3,2.5,0.0,0.0,24.1,21.3,13.1,6.9,8.9,6.3,2.8,0.8,0.8,0.0,0.6,0.0,16.9,6.9,12.5,"Percent Thiol Reduction vs. Control [1, 19]: 79.0%; Percent Thiol Reduction vs. Control [1, 20]: 92.1%; thiol reduction, comparison in words ([1]; 1 ppm 1-propanethiol, compound 0.01% and 0.05%): better reduction in thiol than delta damascone; Percent Thiol Reduction vs. Control [1, 21]: 41.3%; Percent Thiol Reduction vs. Control [1, 22]: 66.7%; thiol reduction, comparison in words ([1]; 10 ppm 1-propanethiol, compound 0.05%): close to delta damascone's thiol reduction; % inhibition of TRPV1 activation by 500 uM H2O2 (human TRPV1 [4]; Dose 4000): 98%; % Reduction of Hydrogen Peroxide TRPV1 Activation (human TRPV1 [4]; antagonist 400 μM against 500 μM hydrogen peroxide): 98%; Ca++ counts (human TRPV1 [4]; Dose 4000, 500 uM H2O2): 38; % inhibition of TRPV1 activation by 350 nM Capsaicin (human TRPV1 [5]; Dose 4000): 4%; Ca++ counts (human TRPV1 [5]; Dose 4000, 350 nM Capsaicin): 11397"
CCc1occc(=O)c1O [Ethyl maltol],−17.2%,–,–,–,–,–,–,–,–,–,–,–,–,–,–,–,–,–,–,–,–

# — US20130315843A1, “COMPOSITION FOR REDUCTION OF TRPA1 AND TRPV1 SENSATIONS” (priority 2012, published 2013)
